A short description of one data set: ERG study in mice. The class given is in vivo. The settings on record: Low dose 12 μg per eye and High dose 48 μg per eye.
A further data set addresses MetAP2 (Homo sapiens, UniProt P50579). Briefly: MetAp2 enzymatic assay, L-Met-AMC substrate (Experimental Set-Up 1). In kind it is biochemical. The method, then:
Quantitative MetAP2 activity assay by N-terminal cleavage of substrate 7-amino-4-methyl-courmarin was performed as follows: The activity of MetAP2 was measured using fluorescent peptide substrate L-Met-AMC (Santa Cruz Biotechnology, Inc, sc-207807) as described by Garrabrant et al. (Angiogenesis 7: 91-96, 2004). Briefly, the reaction (100 μl final) was initiated by adding 0.5 μg of MetAP2 or 5 μg HUVEC homogenate to reaction buffer containing 50 mM HEPES (pH 7.4), 100 mM NaCl, 0.1 mM CoCl2, 1 mg/ml PEG6000, and 250 μM L-Met-AMC substrate. The assay was prepared in black flat-bottomed 96-well microtiter plates and fluorescence was measured every 20 s over a period of 60 min at 25° C. using a microplate fluorometer (Bioteck, SynergyHT), with excitation and emission wavelengths set at 360 and 440 nm respectively. As a control the inhibition of the enzyme was obtained by incubating it with TNP-470 for 15 min before the addition of the substrate.
The inhibitory effect of the compounds were tested in MetAp2 enzymatic assay.

The next data set deals with HUVECs. Briefly: HUVEC proliferation assay (MTT). The class given is cell-based, human. As to conditions: for reduction in HUVECs proliferation: 72 h, MTT. As to the method:
(§1) Human Umbilical Vein Endothelial Cells (HUVECs) or human melanoma cell line (A375) were used to validate the ability of the compound to suppress endothelial cell proliferation. Each 1500 A375 cells/well or 2000 HUVEC cells/well were seeded in a 96 wells plate and allowed to adhere to the plate for few hours. Compounds were then added to the cells at concentration range of 0.05-10 μM (<0.1% DMSO). Cells were then incubated for additional 72 hours and MTT was done (2 to 3 h at 37° C.). The dye was solubilized with DMSO and the absorbance was determined at 570 nm.
A375 were seeded (2000 cells/well) exposed to TNP-470 and to arrange concentrations of AD-3281 (1-100 μM) cells were incubated for 72 h at 37° C., After incubation, MTT (Sigma Aldrich, St. Louis City, MO, USA) was added (0.5 mg/mL) into each well for viability detection and incubated at 37° C. and 5% CO2 for 40 minutes. The absorbance was measured at 540 nm using a plate reader (Wallac 1420 VICTOR plate reader, Perkin-Elmer Life Sciences, USA). The proliferation of HUVECs was measured under the same conditions. HUVECs were seeded (3000 cells/well) in 96-well plates
To further verify the inhibition activity of encapsulated AD-3281 in PLGA nanoparticles HUVECS and A375 were exposed to different concentrations of nanoparticles equivalent to 50-1000 nM free AD-3281 (0.2-4.16 mg/ml nanoparticles) empty nanoparticles were added as a control. The effect of AD-3281 on HUVECs growth was evaluated after 5 days.
A375 were seeded (2000 cells/well) exposed to TNP-470 and to arrange concentrations of AD-3281 (1-100 μM) cells were incubated for 72 h at 37° C., after incubation, MTT (Sigma Aldrich, St. Louis City, MO, USA) was added (0.5 mg/mL) into each well for viability detection and incubated at 37° C. and 5% CO2 for 40 minutes. The absorbance was measured at 540 nm using a plate reader (Wallac 1420 VICTOR plate reader, Perkin-Elmer Life Sciences, USA). The proliferation of HUVECs was measured under the same conditions. HUVECs were seeded (3000 cells/well) in 96-well plates. […]

The subject of the next data set is A375 cells. Briefly: A375 proliferation assay (MTT). The class given is cell-based, human. The settings on record: 1-100 μM, 72 h, dose-dependent. The method, then:
as §1
A375 were seeded (2000 cells/well) exposed to TNP-470 and to arrange concentrations of AD-3281 (1-100 μM) cells were incubated for 72 h at 37° C., After incubation, MTT (Sigma Aldrich, St. Louis City, MO, USA) was added (0.5 mg/mL) into each well for viability detection and incubated at 37° C. and 5% CO2 for 40 minutes. The absorbance was measured at 540 nm using a plate reader (Wallac 1420 VICTOR plate reader, Perkin-Elmer Life Sciences, USA). The proliferation of HUVECs was measured under the same conditions. HUVECs were seeded (3000 cells/well) in 96-well plates […]

Molecules are shown by their SMILES.

Sequence of MetAP2 (P50579 whole entry): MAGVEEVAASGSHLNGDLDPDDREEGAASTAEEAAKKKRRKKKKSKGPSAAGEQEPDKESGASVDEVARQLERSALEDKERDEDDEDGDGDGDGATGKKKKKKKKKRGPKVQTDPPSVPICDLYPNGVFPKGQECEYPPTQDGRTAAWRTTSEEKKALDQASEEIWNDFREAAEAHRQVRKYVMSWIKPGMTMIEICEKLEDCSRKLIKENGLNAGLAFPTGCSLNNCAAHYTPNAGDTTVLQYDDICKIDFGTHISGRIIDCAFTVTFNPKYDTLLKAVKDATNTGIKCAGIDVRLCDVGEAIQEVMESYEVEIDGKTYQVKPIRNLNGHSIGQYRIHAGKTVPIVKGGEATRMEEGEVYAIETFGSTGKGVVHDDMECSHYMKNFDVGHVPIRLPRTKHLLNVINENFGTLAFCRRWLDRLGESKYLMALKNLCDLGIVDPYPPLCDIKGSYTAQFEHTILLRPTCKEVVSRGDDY

On to `COC1C(OC(=O)CC23CC4CC(CC(C4)C2)C3)CCC2(CO2)C1C1(C)OC1CC=C(C)C` (stereo not drawn) [AD-3281, Fumagillol-1-adamantylacetate], for which the “damage to vision (ERG)” value in the data set “ERG study in mice” is “no damage to vision”. For the same compound, the “inhibitory effect in MetAp2 enzymatic assay (ranking among compounds)” value at MetAP2 is listed as “most active”. Besides, the “suppression of endothelial cell proliferation (ranking among compounds)” value in the data set with HUVECs is on record as “most active”. Besides, the “reduction in HUVECs proliferation” value in the data set with HUVECs (1 μM) was found to be 40%; in the data set with HUVECs (10 μM), 50%. Besides, the “reduction in A375 cancer cell proliferation” value in the data set with A375 cells was 37-63%.

For the origin of these results see patent publication US20250129033A1, “METAP2 INHIBITORS AND USES THEREOF” (Yissum Research Development Company of the Hebrew …, priority 2022, published 2025).
